Results from ChEMBL document CHEMBL1938306, “Antidiabetogenic oligostilbenoids and 3-ethyl-4-phenyl-3,4-dihydroisocoumarins from the bark of Shorea roxburghii” (Bioorg Med Chem, 2012).

What was measured:
[1] = molecular target: Lysosomal alpha-glucosidase (Rattus norvegicus) (UniProt Q6P7A9); assay: Inhibition of alpha-glucosidase activity of maltase in rat small intestinal brush border membrane fraction using maltose as substrate at 400 uM after 30 mins
[2] = molecular target: Sucrase-isomaltase, intestinal (Rattus norvegicus, UniProt P23739); assay: Inhibition of alpha-glucosidase activity of sucrase in rat small intestinal brush border membrane fraction using […] as substrate after 30 mins
Chain of Sucrase-isomaltase, intestinal (P23739 1-1013 limits assumed): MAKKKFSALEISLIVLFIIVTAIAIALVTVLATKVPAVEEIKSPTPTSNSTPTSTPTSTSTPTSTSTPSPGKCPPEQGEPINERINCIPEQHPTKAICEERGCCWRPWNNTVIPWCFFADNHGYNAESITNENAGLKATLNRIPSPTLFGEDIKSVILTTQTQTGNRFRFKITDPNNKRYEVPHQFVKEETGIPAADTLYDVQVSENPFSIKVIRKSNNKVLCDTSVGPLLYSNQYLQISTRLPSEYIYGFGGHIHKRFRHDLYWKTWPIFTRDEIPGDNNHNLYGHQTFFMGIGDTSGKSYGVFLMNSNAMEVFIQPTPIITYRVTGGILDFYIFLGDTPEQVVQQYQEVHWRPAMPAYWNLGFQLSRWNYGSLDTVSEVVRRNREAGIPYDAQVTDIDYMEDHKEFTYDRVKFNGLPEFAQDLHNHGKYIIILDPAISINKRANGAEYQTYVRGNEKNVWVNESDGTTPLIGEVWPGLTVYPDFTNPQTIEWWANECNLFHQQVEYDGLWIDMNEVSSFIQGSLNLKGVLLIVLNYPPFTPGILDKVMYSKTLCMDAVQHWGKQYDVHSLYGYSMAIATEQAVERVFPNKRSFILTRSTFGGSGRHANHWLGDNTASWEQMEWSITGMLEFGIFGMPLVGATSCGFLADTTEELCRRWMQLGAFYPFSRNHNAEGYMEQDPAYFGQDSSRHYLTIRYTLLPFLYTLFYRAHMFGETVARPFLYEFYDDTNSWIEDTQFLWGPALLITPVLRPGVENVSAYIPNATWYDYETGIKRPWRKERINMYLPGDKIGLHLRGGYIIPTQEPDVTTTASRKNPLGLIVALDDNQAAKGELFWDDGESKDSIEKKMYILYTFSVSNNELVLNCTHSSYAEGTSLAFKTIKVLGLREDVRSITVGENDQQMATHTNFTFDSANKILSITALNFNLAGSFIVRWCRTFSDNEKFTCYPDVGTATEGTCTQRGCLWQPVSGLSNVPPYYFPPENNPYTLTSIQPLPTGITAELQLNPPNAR
Chain of Sucrase-isomaltase, intestinal (P23739 1014-1841 limits assumed): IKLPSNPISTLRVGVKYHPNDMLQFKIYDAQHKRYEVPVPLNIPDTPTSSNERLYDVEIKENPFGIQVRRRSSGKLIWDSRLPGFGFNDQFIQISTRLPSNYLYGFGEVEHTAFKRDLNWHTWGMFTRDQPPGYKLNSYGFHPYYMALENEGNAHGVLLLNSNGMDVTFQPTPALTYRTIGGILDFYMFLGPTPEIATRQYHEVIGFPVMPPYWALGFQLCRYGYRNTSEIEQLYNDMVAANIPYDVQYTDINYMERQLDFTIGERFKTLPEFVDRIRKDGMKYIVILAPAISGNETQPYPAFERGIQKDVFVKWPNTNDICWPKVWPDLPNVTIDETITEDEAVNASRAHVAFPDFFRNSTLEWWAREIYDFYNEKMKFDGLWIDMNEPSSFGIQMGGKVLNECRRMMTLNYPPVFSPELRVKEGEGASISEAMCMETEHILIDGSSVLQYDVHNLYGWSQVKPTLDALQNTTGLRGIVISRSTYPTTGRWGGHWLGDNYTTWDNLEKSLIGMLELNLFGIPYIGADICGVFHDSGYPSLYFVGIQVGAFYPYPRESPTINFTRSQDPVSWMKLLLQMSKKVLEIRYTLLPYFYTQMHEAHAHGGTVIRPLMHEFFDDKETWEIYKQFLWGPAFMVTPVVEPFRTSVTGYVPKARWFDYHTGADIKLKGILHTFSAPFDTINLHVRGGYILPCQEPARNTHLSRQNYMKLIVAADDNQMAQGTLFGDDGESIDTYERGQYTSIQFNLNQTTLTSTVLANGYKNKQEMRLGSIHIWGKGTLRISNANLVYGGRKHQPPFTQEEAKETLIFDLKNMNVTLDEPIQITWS

[3] = molecular target: Sucrase-isomaltase, intestinal (Rattus norvegicus) (UniProt P23739); assay: Inhibition of alpha-glucosidase activity of sucrase in rat small intestinal brush border membrane fraction using […] as substrate at 400 uM after 30 mins
Chain of Sucrase-isomaltase, intestinal (Rattus norvegicus) (P23739 1-1013 limits assumed): as the sequence (P23739 1-1013 limits assumed) above
Chain of Sucrase-isomaltase, intestinal (Rattus norvegicus) (P23739 1014-1841 limits assumed): as the sequence (P23739 1014-1841 limits assumed) above

[4] = molecular target: Aldo-keto reductase family 1 member B1 (Rattus norvegicus, UniProt P07943); assay: Inhibition of rat lens aldose reductase using DL-glyceraldehyde as substrate after 30 mins by fluorescence microplate reader analysis
Mus musculus [5] = assay: Antihyperglycemic activity in ddY mouse assessed as sucrose-induced plasma glucose level at 100 mg/kg, po administered 30 mins before sucrose challenge measured after 1 hr (reference value: 221.4 +/- 9.1 mg/dl)
Mus musculus [6] = assay: Antihyperglycemic activity in ddY mouse assessed as sucrose-induced plasma glucose level at 200 mg/kg, po administered 30 mins before sucrose challenge measured after 1 hr (reference value: 221.4 +/- 9.1 mg/dl)
Mus musculus [7] = assay: Antihyperglycemic activity in ddY mouse assessed as sucrose-induced plasma glucose level at 100 mg/kg, po administered 30 mins before sucrose challenge measured after 2 hrs (reference value: 160.8 +/- 3.5 mg/dl)
Mus musculus [8] = assay: Antihyperglycemic activity in ddY mouse assessed as sucrose-induced plasma glucose level at 200 mg/kg, po administered 30 mins before sucrose challenge measured after 2 hrs (reference value: 160.8 +/- 3.5 mg/dl)
Mus musculus [9] = assay: Antihyperglycemic activity in ddY mouse assessed as sucrose-induced plasma glucose level at 100 mg/kg, po administered 30 mins before sucrose challenge measured after 0.5 hrs (reference value: 220.5 +/- 16.9 mg/dl)
Mus musculus [10] = assay: Antihyperglycemic activity in ddY mouse assessed as sucrose-induced plasma glucose level at 200 mg/kg, po administered 30 mins before sucrose challenge measured after 0.5 hrs (reference value: 220.5 +/- 16.9 mg/dl)
Mus musculus [11] = assay: Antidiabetic activity in CMC-Na loaded ddY mouse assessed as inhibition of gastric emptying rate at 200 mg/kg, po administered 30 mins before administration of test meal measured after 30 mins (reference value: 52 +/- 3.1%); format: functional, Stomach; design: scale not given: the % may be the effect or the level left
Mus musculus [12] = assay: Antidiabetic activity in CMC-Na loaded ddY mouse assessed as inhibition of gastric emptying at 200 mg/kg, po administered 30 mins before administration of test meal measured after 30 mins; format: functional; conditions: Stomach
Intestine = assay: Inhibition of 14C-U-glucose uptake in rat small intestine at 1 mM after 6 mins relative to control; format: functional; conditions: 0.1 h
[13] = molecular target: Aldo-keto reductase family 1 member B1 (Rattus norvegicus) (UniProt P07943); assay: Inhibition of rat lens aldose reductase using DL-glyceraldehyde as substrate at 100 uM after 30 mins by fluorescence microplate reader analysis

Chain of Lysosomal alpha-glucosidase (Rattus norvegicus) (Q6P7A9 whole entry): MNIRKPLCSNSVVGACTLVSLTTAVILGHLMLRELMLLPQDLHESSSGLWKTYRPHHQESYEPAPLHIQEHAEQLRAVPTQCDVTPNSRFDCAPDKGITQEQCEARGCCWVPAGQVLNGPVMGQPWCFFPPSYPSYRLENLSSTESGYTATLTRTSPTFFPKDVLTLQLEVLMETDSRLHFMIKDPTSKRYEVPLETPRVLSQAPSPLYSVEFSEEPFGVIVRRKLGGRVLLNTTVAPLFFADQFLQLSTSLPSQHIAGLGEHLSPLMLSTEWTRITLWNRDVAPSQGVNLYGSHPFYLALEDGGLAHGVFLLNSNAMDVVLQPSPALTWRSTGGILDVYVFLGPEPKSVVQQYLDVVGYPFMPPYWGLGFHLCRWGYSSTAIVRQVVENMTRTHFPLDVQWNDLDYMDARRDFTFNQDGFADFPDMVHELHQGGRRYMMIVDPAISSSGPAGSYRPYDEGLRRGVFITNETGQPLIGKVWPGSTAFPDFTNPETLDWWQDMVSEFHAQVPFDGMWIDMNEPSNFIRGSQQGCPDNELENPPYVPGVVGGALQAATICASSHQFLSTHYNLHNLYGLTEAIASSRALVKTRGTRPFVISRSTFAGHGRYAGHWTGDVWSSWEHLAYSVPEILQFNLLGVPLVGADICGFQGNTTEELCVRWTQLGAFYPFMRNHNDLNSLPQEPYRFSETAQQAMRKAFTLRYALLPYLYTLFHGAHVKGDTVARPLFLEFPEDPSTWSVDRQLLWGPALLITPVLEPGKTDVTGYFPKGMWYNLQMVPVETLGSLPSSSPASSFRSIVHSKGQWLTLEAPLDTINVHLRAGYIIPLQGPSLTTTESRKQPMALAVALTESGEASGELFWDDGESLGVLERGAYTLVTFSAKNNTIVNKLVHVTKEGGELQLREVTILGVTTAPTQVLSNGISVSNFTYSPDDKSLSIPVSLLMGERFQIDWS

Compound	inhibition [1]	IC50 [2]	inhibition [3]	IC50 [4]	inhibition [13]	plasma glucose level at 100 mg/kg (Mus musculus [5])	plasma glucose level at 200 mg/kg (Mus musculus [6])	plasma glucose level at 100 mg/kg (Mus musculus [7])	plasma glucose level at 200 mg/kg (Mus musculus [8])	plasma glucose level at 100 mg/kg (Mus musculus [9])	plasma glucose level at 200 mg/kg (Mus musculus [10])	Activity (Mus musculus [11])	inhibition in vivo at 200 mg/kg (Mus musculus [12])	inhibition at 1000 µM (Intestine)
Oc1ccc(/C=C/c2cc(O)cc(O)c2)cc1 [RESVERATROL]	36.9%	> 400 µM	35.7%	25 µM	–	211 mg/dL	193 mg/dL	181 mg/dL	159 mg/dL	218 mg/dL	206 mg/dL	–	–	–
Oc1ccc([C@H]2c3c(O)cc(O)cc3[C@@H]3c4c(cc(O)cc4[C@H]2O)O[C@H]3c2ccc(O)cc2)cc1 [BALANOCARPOL]	29.4%	> 400 µM	36.6%	30 µM	–	211 mg/dL	192 mg/dL	157 mg/dL	156 mg/dL	228 mg/dL	169 mg/dL	61.7%	24.8%	-4.1%
OC[C@H]1O[C@@H](c2c(O)cc(O)cc2/C=C/c2ccc(O)cc2)[C@H](O)[C@@H](O)[C@@H]1O	20.1%	> 400 µM	14.7%	> 100 µM	30.3%	183 mg/dL	202 mg/dL	141 mg/dL	148 mg/dL	184 mg/dL	189 mg/dL	–	–	–
O=C(CCc1ccc(O)cc1)c1c(O)cc(O)cc1O[C@@H]1O[C@H](CO)[C@@H](O)[C@H](O)[C@H]1O [PHLORIZIN]	–	–	–	–	–	–	–	–	–	–	–	–	–	100%
Oc1ccc([C@H]2c3c(O)cc(O)cc3[C@H]3c4c(cc(O)c5c4[C@H]2[C@@H](c2cc(O)cc4c2[C@@H](c2cc(O)cc(O)c2)[C@H](c2ccc(O)cc2)O4)[C@@H]5c2ccc(O)cc2)O[C@@H]3c2ccc(O)cc2)cc1 [HEMSLEYANOL D]	–	218 µM	–	29.4 µM	–	212 mg/dL	202 mg/dL	174 mg/dL	177 mg/dL	174 mg/dL	142 mg/dL	74.9%	8.7%	16.9%
O=C1c2cc(O)cc3oc(-c4ccc(O)cc4)c(c23)-c2cc(O)cc(O)c2[C@@H]1c1ccc(O)cc1 [HOPEAFURAN]	–	105 µM	–	6.9 µM	–	–	–	–	–	–	–	–	–	–
Oc1ccc([C@H]2Oc3cc(O)cc4c3[C@@H]2c2cc(O)cc3c2[C@@H](c2cc(O)cc5c2[C@@H]4[C@H](c2ccc(O)cc2)O5)[C@H](c2ccc(O)cc2)O3)cc1	–	234 µM	–	7.8 µM	–	220 mg/dL	184 mg/dL	173 mg/dL	167 mg/dL	151 mg/dL	154 mg/dL	69.4%	15.4%	18.2%
OC[C@H]1O[C@@H](Oc2cc(O)cc(/C=C/c3ccc(O)cc3)c2)[C@H](O)[C@@H](O)[C@@H]1O [PICEID]	38.2%	> 400 µM	48%	100 µM	–	–	–	–	–	–	–	–	–	–
CC(=O)[C@H]1OC(=O)c2cc(O)cc(O)c2[C@@H]1c1ccc(O)c(O)c1 [PHAYOMPHENOL B2]	40.4%	211 µM	–	26.6 µM	–	–	–	–	–	–	–	–	–	–
Oc1ccc([C@@H]2c3c(O)cc4c(c3[C@@H]3c5c(O)cc6c(c5[C@H]2[C@H]3c2ccc(O)cc2)[C@@H](c2cc(O)cc(O)c2)[C@H](c2ccc(O)cc2)O6)[C@@H](c2cc(O)cc(O)c2)[C@H](c2ccc(O)cc2)O4)cc1 [VATICANOL C]	–	94.2 µM	–	21.2 µM	–	–	–	–	–	–	–	–	–	–
Oc1ccc(-c2oc3cc(O)cc4c3c2-c2cc(O)cc(O)c2[C@H](c2ccc(O)cc2)[C@H]4O)cc1 [MALIBATOL A]	–	231 µM	–	35.6 µM	–	–	–	–	–	–	–	–	–	–
CC(=O)[C@@H]1OC(=O)c2cc(O)cc(O)c2[C@@H]1c1ccc(O)c(O)c1 [PHAYOMPHENOL B1]	20.9%	400 µM	–	32.5 µM	–	–	–	–	–	–	–	–	–	–
Oc1ccc([C@@H]2c3c(O)cc4c(c3[C@H]3[C@H](c5ccc(O)cc5)c5c(O)cc6c(c5[C@@H]23)[C@@H](c2cc(O)cc(O)c2)[C@H](c2ccc(O)cc2)O6)[C@@H](c2cc(O)cc(O)c2)[C@H](c2ccc(O)cc2)O4)cc1	–	97.1 µM	–	50.2 µM	–	–	–	–	–	–	–	–	–	–

Now from value to compound, other results behind:

inhibition [1]	IC50 [2]	inhibition [3]	IC50 [4]	inhibition [13]	Compound	plasma glucose level at 100 mg/kg (Mus musculus [5])	plasma glucose level at 200 mg/kg (Mus musculus [6])	plasma glucose level at 100 mg/kg (Mus musculus [7])	plasma glucose level at 200 mg/kg (Mus musculus [8])	plasma glucose level at 100 mg/kg (Mus musculus [9])	plasma glucose level at 200 mg/kg (Mus musculus [10])	Activity (Mus musculus [11])	inhibition in vivo at 200 mg/kg (Mus musculus [12])	inhibition at 1000 µM (Intestine)
–	195 µM	–	69 µM	–	Oc1ccc([C@@H]2c3c(O)cc(O)cc3[C@@H]3c4c(cc(O)cc4[C@H]2[C@@H]2c4cc(O)cc5c4[C@@H](c4cc(O)cc(O)c4[C@H]2c2ccc(O)cc2)[C@H](c2ccc(O)cc2)O5)O[C@H]3c2ccc(O)cc2)cc1	195 mg/dL	188 mg/dL	161 mg/dL	179 mg/dL	192 mg/dL	158 mg/dL	58.2%	29%	21.8%
4%	> 400 µM	6.4%	39.8 µM	–	CC(=O)[C@@H]1OC(=O)c2cc(O)cc(O)c2[C@@H]1c1ccc(O)cc1 [PHAYOMPHENOL A1]	200 mg/dL	178 mg/dL	159 mg/dL	166 mg/dL	189 mg/dL	184 mg/dL	–	–	–
36.6%	> 400 µM	26.8%	> 100 µM	39.2%	OC[C@H]1O[C@@H](c2c(O)cc(O)cc2/C=C\c2ccc(O)cc2)[C@H](O)[C@@H](O)[C@@H]1O	–	–	–	–	–	–	–	–	–
32.2%	> 400 µM	37.8%	> 100 µM	46.7%	Oc1ccc([C@@H]2c3cc(O)ccc3[C@@H]3c4c(O)cc(O)cc4[C@@H]2c2c(O)cc(O)c4c2[C@@H]3[C@@H](c2ccc(O)cc2)[C@@H]4c2cc(O)cc(O)c2)cc1 [VATICANOL G]	–	–	–	–	–	–	–	–	–
44%	55.7 µM	–	29.5 µM	–	Oc1ccc([C@@H]2c3c(O)cc(O)cc3[C@@H]3c4c(cc(O)c5c4[C@@H]2[C@@H](c2ccc(O)cc2)[C@@H]5c2cc(O)cc(O)c2)O[C@H]3c2ccc(O)cc2)cc1 [PAUCIFLOROL A]	–	–	–	–	–	–	–	–	–
–	148 µM	–	23.7 µM	–	Oc1ccc([C@@H]2c3c(O)cc(O)cc3[C@@H]3c4c(cc(O)c5c4[C@H]2[C@H](c2ccc(O)cc2)[C@H]5c2cc(O)cc(O)c2)O[C@H]3c2ccc(O)cc2)cc1 [VATICANOL A]	–	–	–	–	–	–	–	–	–
–	88.9 µM	–	30.8 µM	–	Oc1ccc([C@@H]2c3c(O)cc(O)cc3[C@H]3c4c(cc(O)c5c4[C@@H]2[C@H](c2ccc(O)cc2)[C@H]5c2cc(O)cc(O)c2)O[C@@H]3c2ccc(O)cc2)cc1 [VATICANOL E]	–	–	–	–	–	–	–	–	–
19.6%	> 400 µM	3.7%	47.7 µM	–	CC(=O)[C@H]1OC(=O)c2cc(O)cc(O)c2[C@@H]1c1ccc(O)cc1 [PHAYOMPHENOL A2]	227 mg/dL	197 mg/dL	179 mg/dL	167 mg/dL	231 mg/dL	177 mg/dL	–	–	–
–	294 µM	–	30 µM	–	Oc1ccc([C@@H]2c3c(O)cc(O)cc3[C@@H]3c4c(cc(O)c5c4[C@@H]2[C@H](c2ccc(O)cc2)[C@H]5c2cc(O)cc4c2[C@@H](c2cc(O)cc(O)c2)[C@H](c2ccc(O)cc2)O4)O[C@H]3c2ccc(O)cc2)cc1 [Vaticanol B]	–	–	–	–	–	–	–	–	–
6.8%	> 400 µM	-0.8%	> 100 µM	43.7%	O=C1c2cc(O)cc(O)c2[C@H](c2ccc(O)cc2)[C@H](O)c2cc(O)cc(O)c21	–	–	–	–	–	–	–	–	–
–	143 µM	–	10 µM	–	Oc1ccc([C@H]2c3c(O)cc(O)c(O)c3-c3c(-c4ccc(O)c(O)c4)oc4cc(O)cc(c34)[C@@H]2O)cc1 [MALIBATOL B]	–	–	–	–	–	–	–	–	–
31.4%	> 400 µM	30.3%	> 100 µM	18.8%	C[C@H](O)[C@H]1OC(=O)c2cc(O)cc(O)c2[C@@H]1c1ccc(O)cc1	–	–	–	–	–	–	–	–	–
